The record followed here is patent US20020077345A1, “Cis-substituted aminocycloalkylpyrrolidine derivatives” (priority 1997, published 2002).

≈ marks a conversion by molar mass, not a printed value. Structures can show the parent of a compound that is named as a salt. Where two headings read alike, the source gives them in different places. Marks after values point to notes of the source that are not given here.

One data set concerns Slc:ddy male mice. In words: Acute toxicity, intravenous administration to mice. Conditions: deaths/mice dosed. It counts as in vivo. Here is the method: A solution of 5-amino-7-[4-(R)-(1-aminocyclopropyl)-3-(S)-fluoro-1-pyrrolidinyl]-6-fluoro-1-[2-(S)-fluoro-1-(R)-cyclopropyl]-1,4-dihydro-8-methyl-4-oxoquinoline-3-carboxylic acid (abbreviated as cis) hydrochloride (Example 2) or 5-amino-7-[4-(R)-(1-aminocyclopropyl)-3-(R)-fluoro-1-pyrrolidinyl]-6-fluoro-1-(2-(S)-fluoro-1-(R)-cyclopropyl]-1,4-dihydro-8-methyl-4-oxoquinoline-3-carboxylic acid (abbreviated as trans) hydrochloride in distilled water for injection was administered intravenously to Slc:ddy male mice (five mice per group) and the symptoms are observed. The results are as follows.

The test system of another data set is S. flexneli, 2A 5503. Description: Antimicrobial activity (MIC), standard method of Japan Society of Chemotherapy. It counts as cell-based. On the procedure: (§1) To further illustrate the present invention in greater detail, and not by way of limitation, the following Examples will be given. The antimicrobial activity of each target compound was evaluated in accordance with the standard method specified by Japan Society of Chemotherapy and expressed in MIC (μg/ml).

The next data set relates to X. maltophilia, 11D-1275. Described as above. It counts as cell-based. Here is the method: as §1
A further data set relates to E. coli, NIHJ. The data set is described as above. It counts as cell-based. On the procedure: as §1
Another data set has as its system Pr. vulgaris, 08601. The description is as above. The class given is cell-based. On the procedure: as §1
A further data set concerns S. aureus, 870307. The data set is described as above. It counts as cell-based. On the procedure: as §1
For the next data set, the system named is S. aureus, 209P. The description is as above. It counts as cell-based. On the procedure:
as §1

For another data set, the system named is Ps. aeruginosa, 32121. Described as above. The class given is cell-based. On the procedure: as §1
In a further data set the test system is Pr. mirabilis, IFO-3849. Described as above. It counts as cell-based. On the procedure:
as §1

A further data set deals with S. epidermidis, 56500. The data set is described as above. It counts as cell-based. Here is the method: as §1
A further data set deals with Str. pyogenes, G-36. Described as above. The class given is cell-based. On the procedure: as §1
The subject of data set [1] is Str. faecalis, ATCC-19433. The description is as above. It counts as cell-based. Here is the method:
as §1

A further data set deals with Ps. aeruginosa, 32104. Described as above. It counts as cell-based. On the procedure:
as §1

The test system of a further data set is Ser. marcescens, 10100. Described as above. The class given is cell-based. On the procedure: as §1
Setting [2] is: 150 mg/kg intravenously, five per group.
The mark [3] stands for this setting: Stenotrophomonas maltophilia, 11D1275, read-out: MIC.
[4] abbreviates: Escherichia coli, read-out: MIC.
Where [5] appears, read: Proteus vulgaris, read-out: MIC.
The mark [6] stands for this setting: Staphylococcus aureus, read-out: MIC.
Where [7] appears, read: Pseudomonas aeruginosa, read-out: MIC.
Where [8] appears, read: Proteus mirabilis, IFO3849, read-out: MIC.
Setting [9] is: Staphylococcus epidermidis, read-out: MIC.
Where [10] appears, read: Streptococcus pyogenes, G36, read-out: MIC.
Setting [11] is: Enterococcus faecalis, ATCC19433, read-out: MIC.
Setting [12] is: Serratia marcescens, read-out: MIC.

On to `Cc1c(N2C[C@H](F)[C@@H](C3(N)CC3)C2)c(F)c(N)c2c(=O)c(C(=O)O)cn([C@@H]3C[C@@H]3F)c12` [trans, 5-amino-7-[4-(R)-(1-aminocyclopropyl)-3-(R)-fluoro-1-pyrrolidinyl]-6-fluoro-1-(2-(S)-fluoro-1-(R)-cyclopropyl]-1,4-dihydro-8-methyl-4-oxoquinoline-3-carboxylic acid, reference compound], for which the Number of death is 0/5 in the data set on Slc:ddy male mice (50 mg/kg intravenously, five per group); 2/2* with Slc:ddy male mice (100 mg/kg intravenously, test stopped at second death); 2/2* in the data set with Slc:ddy male mice (setting [2]).

By MIC is commonly meant the lowest concentration that inhibits growth of the organism. With `C[C@H]1COc2c(N3C[C@@H](F)[C@@H](C4(N)CC4)C3)c(F)c(N)c3c(=O)c(C(=O)O)cn1c23` [Example 8, 8-Amino-10-[4-(R)-(1-aminocyclopropyl)-3-(S)-fluoro-1-pyrrolidinyl]-9-fluoro-2,3-dihydro-3-(S)-methyl-7-oxo-7H-pyrido[1,2,3-de][1,4]benzoxazine-6-carboxylic acid], in the data set with Slc:ddy male mice (setting [2]), the Number of death result is “same result”. The MIC is 0.013 µg/mL (≈ 0.0309 µM) in the data set with S. flexneli, 2A 5503; 0.39 µg/mL (≈ 0.928 µM) in the data set with X. maltophilia, 11D-1275 (setting [3]); 0.006 µg/mL (≈ 0.0143 µM) in the data set on E. coli, NIHJ (setting [4]); 0.1 µg/mL (≈ 0.238 µM) with Pr. vulgaris, 08601 (setting [5]); 0.2 µg/mL (≈ 0.476 µM) in the data set with S. aureus, 870307 (setting [6]); 0.006 µg/mL (≈ 0.0143 µM) in the data set with S. aureus, 209P (setting [6]). In addition, the minimal inhibitory concentration (MIC) was 0.2 µg/mL (≈ 0.476 µM) in the data set on Ps. aeruginosa, 32121 (setting [7]); 0.1 µg/mL (≈ 0.238 µM) in the data set on Pr. mirabilis, IFO-3849 (setting [8]); 0.013 µg/mL (≈ 0.0309 µM) with S. epidermidis, 56500 (setting [9]); 0.025 µg/mL (≈ 0.0595 µM) in the data set on Str. pyogenes, G-36 (setting [10]); 0.05 µg/mL (≈ 0.119 µM) in data set [1] (setting [11]); 0.39 µg/mL (≈ 0.928 µM) with Ps. aeruginosa, 32104 (setting [7]). Besides, the MIC in the data set with Ser. marcescens, 10100 (setting [12]) worked out at 0.2 µg/mL (≈ 0.476 µM).

Regarding `Cc1c(N2CC(F)[C@@H](C3(N)CCC3)C2)c(F)c(N)c2c(=O)c(C(=O)O)cn(C3CC3F)c12` (single isomer, unassigned; isomer b) [Example 9], the Number of death result in the data set with Slc:ddy male mice (setting [2]) is on record as “same result”.

Consider `Cc1c(N2C[C@@H](F)[C@@H](C3(N)CC3)C2)c(F)c(N)c2c(=O)c(C(=O)O)cn([C@@H]3C[C@@H]3F)c12` [Example 2, 5-Amino-7-[4-(R)-(1-aminocyclopropyl)-3-(S)-fluoro-1-pyrrolidinyl]-6-fluoro-1-[2-(S)-fluoro-1-(R)-cyclopropyl1-1,4-dihydro-8-methyl-4-oxoquinoline-3-carboxylic acid hydrochloride], for which the Number of death in the data set on Slc:ddy male mice (setting [2]) was 0/5. Also, the MIC with S. flexneli, 2A 5503 was ≤ 0.003 µg/mL; in the data set with X. maltophilia, 11D-1275 (setting [3]), 0.05 µg/mL; with E. coli, NIHJ (setting [4]), ≤ 0.003 µg/mL; with Pr. vulgaris, 08601 (setting [5]), 0.013 µg/mL; in the data set on S. aureus, 870307 (setting [6]), 0.025 µg/mL; in the data set with S. aureus, 209P (setting [6]), ≤ 0.003 µg/mL. In addition, the minimum inhibitory concentration (MIC) in the data set with Ps. aeruginosa, 32121 (setting [7]) is 0.05 µg/mL; in the data set on Pr. mirabilis, IFO-3849 (setting [8]), 0.025 µg/mL; in the data set with S. epidermidis, 56500 (setting [9]) it was ≤ 0.003 µg/mL; with Str. pyogenes, G-36 (setting [10]), ≤ 0.003 µg/mL; in data set [1] (setting [11]), 0.025 µg/mL; in the data set on Ps. aeruginosa, 32104 (setting [7]), 0.1 µg/mL. Besides, the MIC in the data set on Ser. marcescens, 10100 (setting [12]) was determined as 0.05 µg/mL.

In the case of `Cc1c(N2CC(CO)C(C3(N)CC3)C2)c(F)c(N)c2c(=O)c(C(=O)O)cn(C3CC3)c12` (stereo not drawn) [Example 1, 5-Amino-7-[cis-4-(1-aminocycloproiyl)-3-hydroxymethyl-1-pyrrolidinyl]-1-cyclopropyl-6-fluoro-1,4-dihydro-8-methyl-4-oxoquinoline-3-carboxylic acid], the Number of death entry in the data set with Slc:ddy male mice (setting [2]) is “same result”.

Regarding `C[C@H]1COc2c(N3C[C@@H](F)[C@@H](C4(N)CC4)C3)c(F)cc3c(=O)c(C(=O)O)cn1c23.Cl` [Example 6, 10-[4-(R)-(1-Aminocyclopropyl)-3-(S)-fluoro-1-pyrrolidinyl]-9-fluoro-2,3-dihydro-3-(S)-methyl-7-oxo-7H-pyrido[1,2,3-de][1,4]benzoxazine-6-carboxylic acid hydrochloride], the MIC in the data set with S. flexneli, 2A 5503 was determined as 0.01 µg/mL; in the data set with X. maltophilia, 11D-1275 (setting [3]) it was 0.39 µg/mL; in the data set on E. coli, NIHJ (setting [4]), 0.01 µg/mL; in the data set on Pr. vulgaris, 08601 (setting [5]), 0.025 µg/mL; with S. aureus, 870307 (setting [6]), 0.2 µg/mL; in the data set on S. aureus, 209P (setting [6]), 0.006 µg/mL. The MIC amounted to 0.1 µg/mL in the data set on Ps. aeruginosa, 32121 (setting [7]); 0.1 µg/mL in the data set on Pr. mirabilis, IFO-3849 (setting [8]); 0.025 µg/mL with S. epidermidis, 56500 (setting [9]); 0.01 µg/mL with Str. pyogenes, G-36 (setting [10]); 0.05 µg/mL in data set [1] (setting [11]); 0.39 µg/mL in the data set with Ps. aeruginosa, 32104 (setting [7]). Moreover, in the data set with Ser. marcescens, 10100 (setting [12]), the minimum inhibitory concentration (MIC) was 0.1 µg/mL.

Turning to `COc1c(N2C[C@@H](F)[C@@H](C3(N)CC3)C2)c(F)cc2c(=O)c(C(=O)O)cn([C@@H]3C[C@@H]3F)c12` [Example 5, 7-[4-(R)-(1-Aminocyclopropyl)-3-(S)-fluoro-1-pyrrolidinyl]-6-fluoro-1-[2-(S)-fluoro-1-(R)-cycloproyyl]-1,4-dihydro-8-methoxy-4-oxoquinoline-3-carboxylic acid], the Number of death entry in the data set on Slc:ddy male mice (setting [2]) was “same result”. Moreover, the minimal inhibitory concentration (MIC) with S. flexneli, 2A 5503 (S. flexneli, 2A 5503) was 0.006 µg/mL (≈ 0.0137 µM); against X. maltophilia, 11D-1275, 0.20 µg/mL (≈ 0.457 µM); against E. coli, NIHJ it was “≦0.003 μg/ml”; in the data set on Pr. vulgaris, 08601, 0.006 µg/mL (≈ 0.0137 µM); with S. aureus, 870307, 0.025 µg/mL (≈ 0.0572 µM); against S. aureus, 209P it was “≦0.003 μg/ml”. Moreover, the MIC in the data set on Ps. aeruginosa, 32121 came out at 0.10 µg/mL (≈ 0.229 µM); in the data set on Pr. mirabilis, IFO-3849, 0.05 µg/mL (≈ 0.114 µM); in the data set with S. epidermidis, 56500, 0.013 µg/mL (≈ 0.0297 µM); in the data set on Str. pyogenes, G-36, 0.006 µg/mL (≈ 0.0137 µM); in data set [1] it was 0.025 µg/mL (≈ 0.0572 µM); with Ps. aeruginosa, 32104, 0.20 µg/mL (≈ 0.457 µM). Moreover, the minimum inhibitory concentration (MIC) against Ser. marcescens, 10100 came to 0.10 µg/mL (≈ 0.229 µM).

With `C[C@H]1COc2c(N3C[C@@H](F)[C@@H](C4(N)CC4)C3)c(F)cc3c(=O)c(C(=O)O)cn1c23` [Example 4, 10-[4-(R)-(1-Aminocyclopropyl)-3-(S)-fluoro-1-pyrrolidinyl]-9-fluoro-2,3-dihydro-3-(S)-methyl-7-oxo-7H-pyrido[1,2,3-de][1,4]benzoxazine-6-carboxylic acid], the Number of death result in the data set on Slc:ddy male mice (setting [2]) is “same result”.

Take `COc1c(N2C[C@@H](F)[C@@H](C3(N)CC3)C2)c(F)c(N)c2c(=O)c(C(=O)O)cn([C@@H]3C[C@@H]3F)c12` [Example 3]: the Number of death result in the data set with Slc:ddy male mice (setting [2]) is on record as “same result”. Besides, the MIC with S. flexneli, 2A 5503 was 0.006 µg/mL (≈ 0.0133 µM); in the data set on X. maltophilia, 11D-1275 (setting [3]) it was 0.2 µg/mL (≈ 0.442 µM); with E. coli, NIHJ (setting [4]) it was 0.006 µg/mL (≈ 0.0133 µM); in the data set with Pr. vulgaris, 08601 (setting [5]), 0.05 µg/mL (≈ 0.111 µM); in the data set with S. aureus, 870307 (setting [6]) it was 0.025 µg/mL (≈ 0.0553 µM); with S. aureus, 209P (setting [6]), ≤ 0.003 µg/mL. The MIC stood at 0.2 µg/mL (≈ 0.442 µM) with Ps. aeruginosa, 32121 (setting [7]); 0.1 µg/mL (≈ 0.221 µM) in the data set on Pr. mirabilis, IFO-3849 (setting [8]); 0.006 µg/mL (≈ 0.0133 µM) with S. epidermidis, 56500 (setting [9]); 0.013 µg/mL (≈ 0.0287 µM) in the data set with Str. pyogenes, G-36 (setting [10]); 0.05 µg/mL (≈ 0.111 µM) in data set [1] (setting [11]); 0.39 µg/mL (≈ 0.862 µM) in the data set on Ps. aeruginosa, 32104 (setting [7]). Besides, in the data set on Ser. marcescens, 10100 (setting [12]), the MIC turned out to be 0.2 µg/mL (≈ 0.442 µM).
